# How the values were obtained:
# Type in all cases: cell-based
# HL60 cell line [1] = assay: Cell differentiation inducing activity (Test 2), NBT reduction; conditions: used by itself; NBT reducing power
# Method: 2. Cell differentiation inducing activity (Test 2): Evaluation was made using Nitro blue tetrazolium (NBT) reduction power. NBT reduction was performed in accordance with the method of S. J. Collins et al. (Int. J. Cancer: 25, pages 213-218 (1980)). In brief, the method is as follows: about 2×10^5 HL60 cells were pelleted, and washed in RPMI-1640 medium. Then, the cells were suspended in RPMI-1640 medium containing 0.1% NBT and 100 ng/ml of phorbol ester (TPA), and cultured for forty minutes at 37° C. The resultant culture was observed under microscope and cells containing blue-black deposits were assessed as differentiated cells. In the presence of ABMK-22 at various concentrations, HL60 cells were cultured for four days and the differentiation inducing power of ABMK-22 was measured. The results of measuring NBT reducing power, which is an indicator of differentiation of a HL60 cell line under each concentration, are shown in FIG. 7. […] At a concentration of 4 mg/mL, about 33% of the cells that were alive were differentiated.
# HL60 cell line [2] = assay: Cell growth suppression activity (Test 1), cell number by counting chamber
# Method: 1. Cell growth suppression activity (Test 1): For assay, the Collagen gel droplet embedded culture-drug sensitivity test (CD-DST method) and a counting chamber were used.
# A method using a counting chamber was performed following the method described in Rinsho Kensaho Teiyo (Kanai's Manual of Clinical Laboratory Medicine), 30th Ed. (Aug. 20, 1993; Kanehara & Co., Ltd.; Tokyo).
# Based on the results of measurement using HL60 cell lines, it became clear that the CD-DST method is not suitable for measuring the growth state of suspended cells. Therefore, the cell growth suppression activity was measured using a counting chamber.
# First, growth of HL60 cell lines was examined in the presence of ABMK-22 at various concentrations to obtain a growth curve of the HL60 line. More specifically, an initial number of cells of HL 60 cell lines was set to be 200,000/ mL. ABMK-22 was added to have concentrations of 0.1, 0.25, 0.5, 0.75, 1, 2, 2.5, 3, 4and 5 mg/1 mL, respectively and cultured. The number of the cells was measured over time for four days.
# Each of the symbols in FIG. 1 indicates the result of measurement of the number of the cells (number/ml) in the presence of ABMK-22 at the concentration of the number indicated in the lower part of FIG. 1 by the symbols. […]
# HL-60 cell lines = assay: Apoptosis inducing activity (Test 3), TUNEL method; conditions: culture for two days
# Method: 3. Apoptosis inducing activity (Test 3): Measurement was performed using a terminal deoxynucleotidyl transferase (TdT)-mediated deoxyuridine triphosphate (dUTP)-biotin nick end-labeling method (TUNEL method). The TUNEL method is a method for identifying apoptosis on a tissue slice reported by Gavrieli et al. in 1992 (Yael Gavrieli et al., The Journal of Cell Biology, vol. 119, No.3, November, 1992, p. 493-501). The method is known to be a method which enables observation of apoptosis at the individual cell level at various states of morbidity and allows comparison with morphology changes. The TUNEL method was performed with HL-60 cell lines using Apoptosis in situ Detection Kit wako (Wako Pure Chemical Industries, Ltd.), according to the method of Gavrieli et al., supra.
# The results of FIG. 9 show results measured for respective test groups. […] Based on the above results, cell death of HL60 cell lines by ABMK-22 are confirmed to be death caused by the induction of apoptosis.
# For identifying the ingredient having the apoptosis induction activity in ABMK-22 obtained in Example 2, ABMK-22 was further purified and fractionated. The obtained ingredient was subjected to the method described in section “3. […]
# Next, the apoptosis induction activity of a ly-ophilized powder of ABMK0415 and ABMK6873 were measured as described in section “3. […]
# [3] = tested on: dendric cells (DC) derived from human peripheral blood monocytes; assay: Immune activation activity: induction of dendritic cells from peripheral blood monocytes, CD80 expression by flow cytometry; conditions: for DCs with increase in expression of CD80: analysed on seventh day
# From the text: Dendritic cells are involved in the establishment of immunity. Dendritic cells may also be called arborescent cells, dendritic leukocyte, or D cells. This is the generic term for cell groups having dendritic form derived from myelocytes distributed in various tissue organs in the living body except for the brain. The cell groups include lymphoid dendritic cells, Langerhans cells, veil cells, inter-connected cells, and interstitional cells. Accompanying an inflammation response caused by invasion of foreign matter, the cells perform pinocytosis, and move from a local spot via the vas afferens to an associated lymph node or to the spleen through bloodstream. The cells are known to start an immune response after they reach a T cell-dependent region by presenting an antigen in a form combined with class II antigen and by activating specific T cells. Namely, the cells play an important role in the immune system. In the present example, the immune activation activity of ABMK0415 and ABMK6873 were confirmed by assaying the induction power of monocytes to dendritic cells.
# Peripheral blood of two healthy people was used as a material with donor consent.
# PBMC were separated from a whole blood specimen which was collected with heparinization by a Ficoll-Paque density centrifugal separation method.
# ABMK0415 and ABMK6873 were used as test samples. ABMK0415 and ABMK6873 were respectively dissolved in culture media of cells used for tests (10% FCS added RPMI-1640, 5% human AB serum added RPMI-1640) such that each mixture has a concentration of 200 mg/ml. The mixtures were filter-sterilized through a filter having a pore diameter of 0.22 μm to obtain test samples.
# An effect of immune activation of novel compounds was examined in vittro through induction power for dendric cells (DC) derived from human peripheral blood monocytes.
# PBMC was processed with a dish treatment for one hour with a carbon dioxide gas incubator. Thus, a monocyte-rich attachment cell fraction was obtained. The cells obtained were cultured in 5% human AB serum added RPMI-1640 (NIKKEN BIOLOGICAL MEDICAL RESEARCH), in the presence of 500 U/ml of GM-CSF (DIACLONE Research) and IL-4(BD Biosciences).
# For culturing, a dish (NUNC) having a diameter of 3.5 cm was used. On the sixth day of culture, Picibanil and the novel compound were added such that the final concentration is 0.1 KE/ml for Picibanil, and 200 μg/ml for ABMK0415and ABMK6873. Picibanil (Chugai Pharmaceutical Co., Ltd.) was used as a positive control which has a DC induction power. […]
# All DCs in the dish were collected on the seventh day after the culture started. The surface antigen thereof was analyzed by flow cytometry using a monoclonal antibody (anti-CD80; BD Bioscience). […]
compound,measurement,setting,value
"C=C1/C(=C\C=C2/CCC[C@]3(C)[C@@H]([C@H](C)CCCC(C)(C)O)CC[C@@H]23)C[C@@H](O)C[C@@H]1O [VD3, 1α, 25(OH)2D3]",concentration at which the agent by itself does not exhibit cell differentiation induction activity,HL60 cell line [1],≤ 10^−10 M
N[C@@H](CCC(=O)NNc1ccc(C=O)cc1)C(=O)O [ABMK6873],growth of HL-60 cells,HL60 cell line [2]; 2.7×10^−4M,remarkably suppressed
same,growth of HL-60 cells,HL60 cell line [2]; various concentrations (2.07×10^−6M to 2.07×10^−4M ABMK0415; 2.7×10^−6M to 2.7×10^−4M ABMK6873),suppress growth of HL-60 cells in nearly a concentration-dependent manner
same,cells in which apoptosis was induced (apoptosis positive cells),HL-60 cell lines; 2.7×10^−4M,about 70%
same,expression induction of CD80 molecules,[3]; 200 μg/ml added on sixth day,remarkably strong expression induction of CD80 molecules
same,DCs with increase in expression of CD80,[3]; 200 μg/ml added on sixth day,about 92%
same,DC inducing power,[3]; compared with Picibanil,stronger than that of Picibanil
"CC1=C(/C=C/C(C)=C/C=C/C(C)=C/C(=O)O)C(C)(C)CCC1 [ATRA, all-trans retinoic acid]",concentration at which the agent by itself does not exhibit cell differentiation induction activity,HL60 cell line [1],≤ 10^−9 M
"O=Cc1ccc(CO)n1CCCC(=O)O [ABMK0415, N-(3-carboxypropyl)-2-formyl-5-hydroxy-methylpyrrole]",cells in which apoptosis was induced (apoptosis positive cells),HL-60 cell lines; 2.07×10^−4M,about 35%
same,DCs with increase in expression of CD80,[3]; 200 μg/ml added on sixth day,about 20%
